System: Murine RAW 264.7 macrophages
Test: LPS-induced TNF-α production in RAW 264.7 macrophages (ELISA)
Format: cell-based
Settings: 1 μM compound for 1 h, then 1 μg/mL LPS, vs vehicle (DMSO), FIG. 1
Procedure: Murine RAW 264.7 macrophages (ATCC TIB-71) were cultured in Dulbecco's Modified Eagle's Medium supplemented with fetal bovine serum (FBS) at a final concentration of 10%. The cells were maintained in T75 flasks in humidified atmosphere with 5% CO2 at 37° C. Subculturing was performed every 2-3 days with a cellscraper.
RAW 264.7 macrophages were seeded onto 24-well plate in 1 mL of complete growth medium and left overnight to enable cell attachment. Next day the cells were washed with phosphate buffered saline and the medium was replaced with 0.5 mL of low serum medium containing 1% FBS. After 3 h of incubation, the medium was replaced with serum-free medium (0.5 mL) and incubated for 1.5 h. Then, the cells were exposed to 1 μM (R,R′)-4′-methoxy-1-naphthylfenoterol (MNF) or vehicle (DMSO) for 1 h followed by stimulation with 1 μg/mL lipopolysaccharide (LPS, E. coli 055: B5). Media were collected at the following timepoints after LPS administration: 0 h, 2 h, 4 h, 6 h, 8 h, and 10 h.
TNF-α was measured in all collected media samples using Quantikine ELISA kit (MTA00B) from R&D Systems according to manufacturer's protocol.
Statistical analysis Obtained data were assessed and plotted using GraphPad Prism 8.4.2. Two-way analysis of variance (ANOVA) followed by Sidak post-hoc test was used to compare mean TNF-α concentration across treatments and exposure times.

For `COc1ccc(C[C@@H](C)NC[C@H](O)c2cc(O)cc(O)c2)c2ccccc12` [(R,R′) MNF, (R,R′)-4′-methoxy-1-naphthylfenoterol], the “inhibition of LPS-induced production of TNF-α” value (8 h timepoint after LPS) was “significant inhibition” and the “inhibition of LPS-induced production of TNF-α” value (10 h timepoint after LPS) was “significant inhibition”.
